Test results taken from US11786492B2, “Therapeutic agent for phosphodiesterase inhibition and its related disorders” (Novalead Pharma Inc, priority 2017, dated 2023).

Experiments:
HaCaT cells = assay: Cell viability of HaCaT cells, Alamar blue; type: cell-based, human; details: 3 μM
Method: HaCaT cells were maintained in T-75 cm2 flask in Dulbecco's modified Eagle medium supplemented with FBS (10%), L-glutamine (2 mM), penicillin (100 ug/ml), streptomycin (100 ug/ml) at 37° C. in 5% CO2 incubator. Cell growth was maintained to 70-80% confluence for seeding and vehicle used was 1% DMSO. The cell viability was checked at various time points using Alamar blue and fluorescence readings were taken at excitation of 544 nm and emission of 590 nm.

human PBMCs = assay: Cell viability of human PBMCs, Alamar blue; type: cell-based; details: 3 μM
Method: Fresh human blood from healthy volunteer was collected in anticoagulant (5 mM) ethylene diamine tetra acetic acid (EDTA) containing tubes. The growth medium used was RPMI-1640 medium (with 3% FBS) and incubated at 37° C. for 60 mins in a 5% CO2 incubator with vehicle used as 1% DMSO. The cell viability was checked at various time points using Alamar blue and fluorescence readings were taken at excitation of 544 nm and emission of 590 nm.

[1] = tested on: Imiquimod induced psoriasis in BALB/c mice; assay: Imiquimod induced psoriasis model in Balb/c mice
Method: BALB/c mice (Sex: Female, Age: 7-8 Weeks) were used for induction of psoriasis using IMQ. Topical application of imiquimod (IMQ) in mice can induce and exacerbate psoriasis closely resembling human psoriasis. […] 3%, 4% and 5% and positive control of Tenovate (Clobetasol) 0.05% cream. In all 63 mg cream containing 5% of IMQ was applied to dorsal area (shaved back) and right ear for 8 days. Topical formulations from Example 7 were used during this experiment.
The parameters investigated were ear thickness change, % inhibition of ear inflammation, Psoriatic Area Severity Index (PASI). Histopathology was performed of right ear and dorsal skin by H & E staining. The biomarker in this study was inflammatory cytokine IL-23 analyzed by ELISA obtained from tissue lysate of ear region where IMQ and doses were applied.

| SMILES | % Viability (±S.E.M.) (HaCaT cells; 24 hrs) [%] | % Viability (±S.E.M.) (HaCaT cells; 48 hrs) [%] | % Viability (±S.E.M.) (HaCaT cells; 72 hrs) [%] | % Viability (±S.E.M.) (human PBMCs; 24 hrs) [%] | % Viability (±S.E.M.) (human PBMCs; 48 hrs) [%] | % Viability (±S.E.M.) (human PBMCs; 72 hrs) [%] | % Body Weight Change ([1]; 0.05% cream, positive control) [%] | % inhibition of Ear inflamn. ([1]; 0.05% cream, positive control) [%] | Histopathology Scores Epidermal Thickness ([1]; 0.05% cream, positive control) | Histopathology Scores Hyperkeratosis ([1]; 0.05% cream, positive control) | Histopathology Scores Rete Peg Prolifern. ([1]; 0.05% cream, positive control) | PASI score ([1]; 0.05% cream, positive control) | Spleen weight ([1]; 0.05% cream, positive control, Day 9) [mg] | IL23 Levels ([1]; 0.05% cream, positive control, ear tissue lysate) [pg/mL] | Spleen weight vs disease control (in words) ([1]; Niclosamide 2%, Nitazoxanide 3% and 5%, Clobetasol 0.05%, Day 9) | Body weight change (in words) ([1]; all tested doses, Clobetasol Day 7 to Day 9) | IL-23 level in ear tissue homogenates (in words) ([1]; different doses) |
| --- | --- | --- | --- | --- | --- | --- | --- | --- | --- | --- | --- | --- | --- | --- | --- | --- | --- |
| COc1cccc2c1C(=O)c1c(O)c3c(c(O)c1C2=O)C[C@@](O)(C(=O)CO)C[C@@H]3O[C@H]1C[C@H](N)[C@H](O)[C@H](C)O1 [Doxorubicin] | 74 ± 6 | 108 ± 5 | 110 ± 2 | 110 ± 1 | 70 ± 5 | 52 ± 1 | – | – | – | – | – | – | – | – | – | – | – |
| C[C@H]1C[C@H]2[C@@H]3CCC4=CC(=O)C=C[C@]4(C)[C@@]3(F)[C@@H](O)C[C@]2(C)[C@@]1(O)C(=O)CCl [Clobetasol] | – | – | – | – | – | – | −16.9 | 86.9 | 4.3 ± 0.3 | 1.0 ± 0.0 | 0.3 ± 0.3 | 4.83 ± 2.3 | 49.3 ± 10.3 | 64.1 ± 7.4 | reduction in spleen weight was observed to be significant | significant body weight change | reduces IL-23 levels below that of normal control |
